Test results from patent US20130011345A1, “FLAVOR-ENHANCING AMIDE COMPOUNDS” (priority 2011, published 2013).

Test: Sensory evaluation of the MSG-IMP umami composition combined with Formulas II and III by a trained sensory panel
Conditions: for Flavor Profile: trained sensory panel; for Effect on umami flavor of the MSG-IMP mixture (summary statement): combined with MSG-IMP mixture, all tested concentrations
Excerpt: The MSG-IMP mixture (0.01% MSG and 0.005% IMP), an umami composition, was combined with Formulas II and III at different concentrations and evaluated by a trained sensory panel.

[1] = Formula concentration 1 ppm in MSG-IMP mixture (0.01% MSG and 0.005% IMP)
[2] = Formula concentration 500 ppb in MSG-IMP mixture (0.01% MSG and 0.005% IMP)

Compound: C#CC#CCC/C=C/C(=O)NCC(C)CC (stereo not shown) [Formula II, (E)-N-(2-methylbutyl)nona-2-en-6,8-diynamide]
- Flavor Profile [1]: Increased umami flavor and less greasy
- Flavor Profile (Formula concentration 5 ppm in MSG-IMP mixture (0.01% MSG and 0.005% IMP)): Strong umami enhancement
- Flavor Profile [2]: Increased mouth-feel, savory
- Effect on umami flavor of the MSG-IMP mixture (summary statement): enhanced the umami flavor

Compound: C#CC#CCC/C=C\C(=O)NCC(C)CC (stereo not shown) [Formula III, (Z)-N-(2-methylbutyl)nona-2-en-6,8-diynamide]
- Flavor Profile [1]: Increased mouthfullness, delocalized
- Flavor Profile [2]: Increased mouthfullness, delocalized
- Effect on umami flavor of the MSG-IMP mixture (summary statement): enhanced the umami flavor
